Data published in BindingDB's records for doi:10.1038/nchembio.2326 (California Institute of Technology, 2017).

Columns and labels:
[1] = target: 26S proteasome non-ATPase regulatory subunit 14 (Homo sapiens, UniProt O00487); test: In Vitro Rpn11 Activity Assay; conditions: pH 7.5; 30 °C
Procedure: Fluorescence polarization assays were performed in low-volume 384-well solid black plates (Molecular Devices) in quadruplicate. The assays were performed in buffer containing 50 mM Tris-HCl pH7.5, 1 mM MgCl2, 50 μM ATP, 1 mM DTT and 0.01% NP-40. The components for the assay were added in the following sequence: (1) 5 μl compound (in 3% DMSO) at different concentrations, (2) 5 μl of diluted human 26S proteasome (Enzo Life Sciences, NY. 26S proteasome was pre-incubated with epoxomicin at room temperature for 1 h, then diluted ten-fold in 1× Assay Buffer), and (3) 5 μl of substrate (3 nM Ub4peptideOG). 100 μM Zn(cyclen)2+ was present in the titration reaction for the experiments performed with Zn(cyclen)2+. Fluorescence polarization was measured at 30 °C using a PHERAstar plate reader (BMG Labtech) with excitation at 480 nm and emission at 520 nm.

[2] = target: Lactoylglutathione lyase (Homo sapiens, UniProt Q04760); test: GLO1 Activity Assay; conditions: pH 7; 25 °C
Procedure: Assays were carried out in 100 mM sodium phosphate, pH 7.0 buffer using 96-well Clear UV Plate (Corning UV Transparent Microplates; catalog #3635). A fresh solution of glutathione (pre-substrate 1, 100 mM) as well as methylglyoxal (pre-substrate 2, 100 mM) was prepared in deionized water. The substrate was prepared by adding 14.5 ml of buffer and 0.99 ml of each pre-substrate components. The substrate mixture was vortexed vigorously for 15 s, then allowed to sit at room temperature for 20 min. Initial well volume was 50 μl containing GLO1 (40 ng) and inhibitor. This protein and inhibitor mixture was incubated for 15–20 min before the addition of substrate. To this was then added substrate (150 μl), yielding a maximum amount of 5% DMSO per well. The enzyme activity was measured using a BioTek Synergy H4 plate reader by measuring absorbance at 240 nmevery 1 min for 8 min.

[3] = target: Macrophage metalloelastase (Homo sapiens, UniProt P39900); test: MMP Activity Assay; conditions: pH 7.5; 37 °C
Chain of Macrophage metalloelastase (P39900 whole entry, the tested form may be a part): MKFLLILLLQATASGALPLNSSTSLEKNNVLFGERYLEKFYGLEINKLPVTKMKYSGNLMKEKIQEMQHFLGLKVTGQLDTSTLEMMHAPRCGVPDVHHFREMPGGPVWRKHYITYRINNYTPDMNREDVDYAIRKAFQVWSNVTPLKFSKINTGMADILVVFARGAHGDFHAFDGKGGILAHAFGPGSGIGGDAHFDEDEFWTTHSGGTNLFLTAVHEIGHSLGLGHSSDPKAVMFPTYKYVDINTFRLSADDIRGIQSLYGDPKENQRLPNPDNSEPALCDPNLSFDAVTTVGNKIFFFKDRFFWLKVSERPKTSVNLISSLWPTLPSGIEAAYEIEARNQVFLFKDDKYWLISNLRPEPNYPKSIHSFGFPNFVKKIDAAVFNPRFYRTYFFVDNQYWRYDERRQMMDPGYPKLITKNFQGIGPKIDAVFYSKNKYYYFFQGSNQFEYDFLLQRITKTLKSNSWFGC
Procedure: (§1) The assay was carried out in white NUNC 96-well plates as previously described [Puerta et al., J. Biol. Inorg. Chem., 11:131-138]. Each well contained a total volume of 90 μl including buffer (50 mM HEPES, 10 mM CaCl2, 0.05% Brij-35, pH 7.5), human recombinant MMP (1.16 U/well for MMP2 and 0.007 U/well for MMP12), and the fragment solution. This mixture was incubated at 37 °C for 30 min. The reaction was then initiated by the addition of 10 μl of the fluorogenic MMP substrate (4 μM final concentration, Mca-Pro-Leu-Gly-Leu-Dpa-Ala-Arg-NH2-AcOH) (Mca = (7-methoxycoumarin-4-yl) acetyl; Dpa = N-3-(2,4-dinitrophenyl)-L-a,β-diaminopropionyl). Fluorescence measurements were recorded using a BioTek Synergy H4 fluorescence plate reader every minute for 20 min with excitation and emission wavelengths at 320 and 400 nm, respectively.

[4] = target: 72 kDa type IV collagenase (Homo sapiens, UniProt P08253); test: MMP Activity Assay; conditions: pH 7.5; 37 °C
Chain of 72 kDa type IV collagenase (P08253 whole entry): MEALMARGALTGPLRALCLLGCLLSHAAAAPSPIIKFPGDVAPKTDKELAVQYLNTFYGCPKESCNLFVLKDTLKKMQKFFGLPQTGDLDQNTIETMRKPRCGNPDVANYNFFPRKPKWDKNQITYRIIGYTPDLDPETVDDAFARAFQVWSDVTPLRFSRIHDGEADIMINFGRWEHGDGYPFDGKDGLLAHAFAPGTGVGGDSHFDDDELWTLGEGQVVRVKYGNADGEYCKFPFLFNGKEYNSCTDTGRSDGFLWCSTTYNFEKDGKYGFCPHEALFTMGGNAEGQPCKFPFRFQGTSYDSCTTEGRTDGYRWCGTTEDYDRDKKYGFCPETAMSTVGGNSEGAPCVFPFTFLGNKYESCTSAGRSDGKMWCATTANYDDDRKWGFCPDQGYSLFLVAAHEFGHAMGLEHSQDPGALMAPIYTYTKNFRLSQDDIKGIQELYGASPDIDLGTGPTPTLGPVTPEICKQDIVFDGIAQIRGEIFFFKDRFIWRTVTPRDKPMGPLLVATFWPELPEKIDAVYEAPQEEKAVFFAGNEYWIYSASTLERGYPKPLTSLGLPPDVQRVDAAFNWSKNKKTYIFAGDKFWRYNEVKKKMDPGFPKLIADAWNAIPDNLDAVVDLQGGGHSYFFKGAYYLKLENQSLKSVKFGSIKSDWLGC
Procedure: as §1

[5] = target: T1, Histone deacetylase 6 (Homo sapiens, UniProt Q9UBN7); test: HDAC6 Activity Assay; conditions: pH 8; 37 °C
T1 sequence (Q9UBN7 whole entry): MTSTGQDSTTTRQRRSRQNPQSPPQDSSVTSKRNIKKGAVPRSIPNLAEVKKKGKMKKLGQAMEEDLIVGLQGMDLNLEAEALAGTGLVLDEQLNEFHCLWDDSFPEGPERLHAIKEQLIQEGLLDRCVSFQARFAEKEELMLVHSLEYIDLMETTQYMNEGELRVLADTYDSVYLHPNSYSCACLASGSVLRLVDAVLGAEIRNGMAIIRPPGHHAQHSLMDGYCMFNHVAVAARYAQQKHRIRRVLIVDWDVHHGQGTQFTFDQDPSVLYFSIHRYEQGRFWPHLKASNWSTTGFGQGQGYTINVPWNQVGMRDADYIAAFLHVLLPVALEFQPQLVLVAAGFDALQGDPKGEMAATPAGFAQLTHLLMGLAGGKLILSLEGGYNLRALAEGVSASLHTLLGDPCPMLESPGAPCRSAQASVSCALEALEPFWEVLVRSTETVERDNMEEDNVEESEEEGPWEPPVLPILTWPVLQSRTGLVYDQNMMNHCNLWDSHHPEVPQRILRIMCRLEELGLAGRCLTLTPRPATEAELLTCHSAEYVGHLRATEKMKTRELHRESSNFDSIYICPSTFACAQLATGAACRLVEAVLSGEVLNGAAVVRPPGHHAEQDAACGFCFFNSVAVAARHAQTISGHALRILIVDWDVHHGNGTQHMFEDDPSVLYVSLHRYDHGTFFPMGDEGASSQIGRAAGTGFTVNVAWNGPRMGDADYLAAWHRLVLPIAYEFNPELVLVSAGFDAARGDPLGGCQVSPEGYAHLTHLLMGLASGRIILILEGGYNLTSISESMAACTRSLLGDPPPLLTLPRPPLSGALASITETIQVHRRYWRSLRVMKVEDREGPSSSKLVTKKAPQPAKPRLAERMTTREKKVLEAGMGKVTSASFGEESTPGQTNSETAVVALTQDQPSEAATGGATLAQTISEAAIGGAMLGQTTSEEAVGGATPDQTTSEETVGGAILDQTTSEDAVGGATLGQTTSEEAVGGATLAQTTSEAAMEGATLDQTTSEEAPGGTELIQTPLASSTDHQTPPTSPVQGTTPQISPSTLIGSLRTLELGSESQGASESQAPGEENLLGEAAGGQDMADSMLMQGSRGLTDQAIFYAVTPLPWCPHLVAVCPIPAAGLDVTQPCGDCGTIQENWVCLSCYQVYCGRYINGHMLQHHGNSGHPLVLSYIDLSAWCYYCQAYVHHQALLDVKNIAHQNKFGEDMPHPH
Procedure: The enzyme was diluted with 25 mM Tris-Cl, 137 mM NaCl, 2.7 mM KCl, 1 mM MgCl2, 0.1 mg/ml BSA, pH 8.0 buffer and its activity was measured by using Substrate 3 (BPS Bioscience; catalog #50037). The assays were carried out in black, low-binding NUNC 96-well plates. Each well contained a volume of 50 μl including buffer, HDAC (50 ng/well), inhibitor, and substrate (20 μM). Prior to adding substrate, the plate was pre-incubated for 5 min. Upon addition of substrate, the plate was incubated at 37 °C for 30 min. At this point, HDAC assay developer (50 μl, BPS Bioscience; catalog #50030) was added to each well and the plate was incubated for 15 min at room temperature. The fluorescence was recorded with a BioTek FLx800 or Synergy H4 microplate reader.

[6] = target: BRISC and BRCA1-A complex member 1/BRISC and BRCA1-A complex member 2/BRISC complex subunit Abraxas 2/Lys-63-specific deubiquitinase BRCC36 (Human, UniProt P46736+Q15018+Q9NWV8+Q9NXR7); test: In Vitro BRCC36 Activity Assay
Procedure: BRCC36 activity was measured using 1 nM purified BRISC complex and 80 nM di-ubiquitin substrate DiUbK63TAMRA (UF-310, Boston Biochem). TAMRA fluorescence intensity was monitored using a PHERAstar plate reader with excitation at 540 nm and emission at 590 nm. Reactions were performed in black low-volume 384-well plates and analyzed as described above.

Chain of Lactoylglutathione lyase (Q04760 whole entry): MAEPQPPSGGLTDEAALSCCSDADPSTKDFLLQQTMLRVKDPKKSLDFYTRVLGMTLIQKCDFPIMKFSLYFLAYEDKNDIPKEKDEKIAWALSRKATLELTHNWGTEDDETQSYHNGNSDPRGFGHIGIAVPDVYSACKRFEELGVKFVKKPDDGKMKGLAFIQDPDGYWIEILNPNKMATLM
Chain of 26S proteasome non-ATPase regulatory subunit 14 (O00487 whole entry): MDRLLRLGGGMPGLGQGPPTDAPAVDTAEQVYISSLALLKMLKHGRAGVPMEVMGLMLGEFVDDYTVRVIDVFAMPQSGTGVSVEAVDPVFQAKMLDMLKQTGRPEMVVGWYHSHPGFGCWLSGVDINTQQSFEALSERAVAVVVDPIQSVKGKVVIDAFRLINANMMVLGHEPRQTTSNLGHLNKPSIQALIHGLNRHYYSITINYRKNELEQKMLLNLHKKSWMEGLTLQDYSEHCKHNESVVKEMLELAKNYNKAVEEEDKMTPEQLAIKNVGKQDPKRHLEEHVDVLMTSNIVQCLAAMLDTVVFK

SMILES | IC50 [1] [µM] | IC50 [2] [µM] | IC50 [3] [µM] | IC50 [4] [µM] | IC50 [5] [µM] | IC50 [6] [µM]
Sc1cccc2cccnc12 [8-Mercaptoquinoline (8TQ)] | 2.4 | – | – | – | – | –
O=C(NCCc1nccs1)c1cnc2c(S)cccc2c1 [Capzimin] | – | 42.8 | > 50 | > 50 | > 200 | 2.3
